Experiments:
neural stem cells = assay: Differentiation of neural stem cells (second generation neurospheres) in medium without FBS; assay type: cell-based, SD rats
Procedure: The second generation of neurospheres in culture was taken, and the culture medium containing growth factors in the culture flask was removed. The neurospheres were randomly divided into two groups: (1) fetal bovine serum (FBS) control group: the culture medium was DMEM/F12+1% FBS; (2) epimedium flavanoide treatment group: the culture medium was DMEM/F12 (without FBS) added with epimedium flavanoide at a final concentration of 10, 50, 100, 200 and 400 μg/ml, respectively; (3) […] treatment group: the culture medium was DMEM/F12 (without FBS) added with […] final concentration of 10, 50, 100, 200 and 400 μg/ml, respectively. The three groups of the cells were inoculated in 24-well culture plates covered with polylysine. After 7 days of culture, the morphology of the cells was observed under inverted microscope, and fluorescent immunostaining was performed and photographed.

[1] = test system: primary cultured neural stem cells (NSC); assay: Survival and proliferation of primary cultured neural stem cells (neurospheres) in medium without growth factors; assay type: cell-based, SD rats
Procedure: The brains were taken from neonatal 1 day SD rats under a sterile condition, and the hippocampi were isolated and placed in culture dish containing a small amount of high glucose DMEM/F12; the meninges and blood vessels were divested, and the tissue was cut into small pieces, added with 5 ml cell culture medium, lightly blown and beaten into cell suspension with flame polished Pasteur sucker, and filtered by 400 screen mesh. The ratio of living cells was counted by trypan-blue staining. After the counting, the cells were placed into a 25 ml culture flask at a density of 2×10^6 cells/ml. Basal culture medium DMEM/F12 (1:1), cofactor B27(2%) and growth factor EGF (20 ng/ml)+bFGF (10 ng)/ml) were needed for conventional culture of NSC, and the cells grew as floating spheres in the culture medium. In order to observe the effect of different concentrations of epimedium flavanoide and its effective ingredient […] on primary cultured NSC, basal culture medium DMEM/F12 (1:1) and B27(2%) were used without growth factor, and epimedium flavanoide or […] final concentration of 10, 50, 100, 200, 400 μg/ml was added respectively. Cultures were maintained at 37° C. in a humidified atmosphere of 95% air/5% CO2. The growth state of the cells was observed under inverted microscope, and the diameter of the neurospheres was measured by micro ruler. The identification of neural stem cells: the neurospheres were taken, the culture medium containing growth factor EGF and bFGF were removed, DMEM/F12 containing 10% FBS was added, and inoculated in 24-well culture plates covered with polylysine. After 16 hours of culture, nestin and doublecortin (DCX) immunocytochemical staining was performed.

[2] = without fetal bovine serum, 7 days, vs FBS group, P<0.01 (FIG. 4)
[3] = without fetal bovine serum, 7 days, vs FBS group, P<0.01 (FIG. 5)

COc1ccc(-c2oc3c(CC=C(C)C)c(OC4OC(CO)C(O)C(O)C4O)cc(O)c3c(=O)c2OC2OC(C)C(O)C(O)C2O)cc1 (centres unmarked) [icarrin, 3-((6-deoxymannopyranosyl)oxo)-7-(pyranoglucosyloxo)-5-hydroxy-2-(4-methoxyphenyl)-8-(3-methyl-2-butenyl)-4H-1-benzopyran-4-one]
morphology of differentiated cells (neural stem cells; 50 μg/ml, DMEM/F12 without FBS, 7 days (FIG. 3D)): the neurospheres grew well and almost completely adhered, and differentiated well | growth, adhesion and differentiation of neurospheres (neural stem cells; 50, 100 μg/ml, without FBS, 7 days): the neurospheres grew well, almost completely adhered, and differentiated well | distance of cell migration (neural stem cells; [2]): farther | length of processes of differentiated cells grown from the neurospheres (neural stem cells; [2]): longer | length of the axons of neurons (neural stem cells; [3]): longer | number of NF-200 positive cells (mature neurons) (neural stem cells; [3]): increased | growth state of neurospheres ([1]; 100 μg/ml, DMEM/F12 without growth factors, 7 days (FIG. 1D)): floating neurospheres were observed | growth state and volume of neurospheres ([1]; 100 μg/ml, DMEM/F12 without growth factors, 28 days (FIG. 1E)): the neurospheres still grew well, and their volume further increased | formation of floating neurospheres ([1]; 10-400 μg/ml, DMEM/F12 without growth factors, 7 days): many floating neurospheres were formed | growth and volume of neurospheres ([1]; 100-200 μg/ml groups, without growth factors, 28 days): still grew well, but also became significantly larger in volume | diameter of neurospheres ([1]; without serum and growth factors, vs control group at 7, 14, 28 days, P<0.01 (FIG. 2)): increased gradually as the incubation time prolonged
